This assay concerns human skin cells (HEKn keratinocytes). As to the kind of experiment: Urban Dust induced lipid peroxidation. The assay is classed as cell-based. As to conditions: after 4 hours, test sample 5%. How it is done: A third-party testing facility conducted tests to determine the effects of standardized Urban Dust particulates (NIST® SRM® 1649b) on the production of free radicals and lipid peroxidation in human skin cells (HEKn keratinocytes). Tests were conducted at 1 hour, 2 hours and 3 hours with varying concentrations of the test samples (1%, 3%, and 5%) (i.e. at one hour intervals) to measure intracellular reactive oxygen species and after 4 hours with test sample (5%) for lipid peroxidation. A fluorescent plate reader was utilized to measure a fluorescent dye incubated in all test conditions which measures intracellular reactive oxygen species and lipid peroxidation. The measurement is expressed as the mean relative fluorescent unit (RFU). FIG. 4B illustrates by bar graph the effects of the Urban Dust on tissue. Non-exposed tissue has immeasurably low RFU. The urban dust exposed cells have an increase in lipid peroxidation with 0.2 RFU.

Here are results for one compound from patent US20200237626A1, “Anti-Aging Corrective and Protective Formulation and Methods” (JAMRM, LLC, priority 2019, published 2020).

Turning to `Cc1c(C)c2c(c(C)c1O)CCC(C)(C(=O)O)O2` (centres unmarked) [Trolox], the “Lipid peroxidation (mean RFU)” value (exposed to Urban Dust, Urban Dust alone 0.2 RFU) was “about 0.05 RFU”. The “Reduction in lipid peroxidation” value (vs Urban Dust exposed cells) came out at 67%.
